For data set [1], the system named is primary juvenile (P5–P6) rat cardiomyocytes. Put plainly: Cell cycle activity assay (Ki67/αActinin) in juvenile rat cardiomyocytes. Format: cell-based. To be noted: c = 10 µM, 4 days, relative to DMSO-treated cells (100), mean of N = 6. The protocol:
One day after seeding, the cells were treated with test compounds of interest. Treatments were applied with an ECHO 520 acoustic dispenser (Labcyte) and medium was added to the wells. Four days after treatment, the cells were fixed with 4% formaldehyde (Roth) and immunostained in 0.2% Triton-X100 (Roth) in PBS (Gibco) supplemented with 5% FBS. […] Samples were then imaged and analysed on an ImageXpress XL automated microscope (Molecular Devices). Data are depicted as means ± SEM.

For a further data set, the system named is rat heart cells. Put plainly: Cell toxicity assessment on rat heart cells in culture. The conditions noted are these: c(peptide) = 10 µM. The protocol: whole heart cells monitored by fluorescence microscopy after 90 minutes treatments (scale bar: 25 µm), number of […]
4E as well as control compounds (SB203580, CHIR99021) on rat heart cells in culture (c(peptide) = 10 µM). Number of independent biological replicates: n = 6, error bars = SEM. […]
cytometry analysis of live cells after 90 min incubation at 5 µM: Representative histogram plot, (-) DMSO control). Source data are provided as a Source Data file.
(1 picture or pasted object on this page, not shown here)

The target of another data set is T1, GST-hTEAD1 (Homo sapiens, UniProt P28347).
T1 construct: CDNA of hTEAD1(209–426) fused with an N-terminal GST tag; made in house; host or cells: Escherichia coli BL21 DE3 RIL(K+)
As to the kind of experiment: SPR binding to immobilised GST-hTEAD1. To be noted: GST-hTEAD1 amine-coupled on CM5, multi-cycle, steady-state fit 1:1 model, 10 mM HEPES 150 mM NaCl 0.05% Tween-20 pH 7.4, 0.3% DMSO, 20 °C, Fig. 1 values n = 1 replicate. The protocol:
(§1) Sensor chips Series S CM5 (Research grade) were obtained from GE Healthcare. Prior to use, the sensor chips were equilibrated at room temperature for 15 min to prevent water condensation on the detector side of the sensor chip surface. A running buffer was prepared composed of 10 mM HEPES, 150 mM NaCl, and 0.05% (w/v) Tween-20, pH 7.4, and the system was equilibrated at 20 °C using a flow rate of 30 µL min^−1 after docking of the sensor chip. Ligand binding experiments have been performed applying the concept of multi-cycle kinetics. A contact time of 45 s was selected, followed by a 6-min dissociation phase to allow for complete dissociation of the analyte prior to the next cycle. […] Typically, seven concentrations of the analytes have been examined applying a threefold dilution pattern with 30 µM as top concentration. For the analysis, five running buffer blanks were injected to equilibrate the instrument. […] The carboxyl-dextran surface was activated for 7 min with 0.05 M NHS and 0.2 M EDC, followed by an injection of the proteins in 10 mM MES pH 6.4 at a concentration of 30–50 µg mL^−1. […] This was followed by a deactivation of the residual esters by injecting a solution of 0.5 M ethanolamine pH 8.0 for 7 min before engaging in ligand binding experiments. Reference surfaces were prepared accordingly, omitting the injection of protein over the activated reference surface.

The target of another data set is T2, mTEAD4 (Mus musculus, UniProt Q62296).
T2 construct: Mouse TEAD4(210–427) cDNA fused with a 6x His-tag and a 3C protease cleavage site; 6x His-tag; 3C protease cleavage site; made in house; host or cells: E. coli BL21 DE3 RIL(K+)
Put plainly: SPR binding to immobilised mTEAD4. To be noted: mTEAD4 amine-coupled on CM5, multi-cycle, steady-state fit 1:1 model, 10 mM HEPES 150 mM NaCl 0.05% Tween-20 pH 7.4, 0.3% DMSO, 20 °C, Fig. 1 values n = 1 replicate. On the procedure: as §1
A general note: In SPR one partner is held on a chip, and binding of the other changes the refractive index at the surface.

Peptide text beside a SMILES is read from it.

T1 sequence (P28347 209-426): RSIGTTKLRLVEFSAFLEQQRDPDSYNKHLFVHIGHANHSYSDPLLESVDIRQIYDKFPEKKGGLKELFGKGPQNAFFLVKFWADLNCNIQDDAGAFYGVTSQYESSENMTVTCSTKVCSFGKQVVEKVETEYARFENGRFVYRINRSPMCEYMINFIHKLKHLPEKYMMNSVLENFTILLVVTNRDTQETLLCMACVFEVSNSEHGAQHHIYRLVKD
T2 sequence (Q62296 210-427): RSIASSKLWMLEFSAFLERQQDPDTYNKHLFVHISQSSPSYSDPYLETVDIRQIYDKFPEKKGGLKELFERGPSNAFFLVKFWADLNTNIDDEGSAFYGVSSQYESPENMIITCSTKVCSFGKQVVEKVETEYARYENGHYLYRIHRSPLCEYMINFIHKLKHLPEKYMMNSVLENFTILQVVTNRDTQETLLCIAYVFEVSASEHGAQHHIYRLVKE

As to `Cc1c[nH]c(-c2cnc(NCCNc3ccc(C#N)cn3)nc2-c2ccc(Cl)cc2Cl)n1` [CHIR99021, reference compound], the “Cell cycle activity, MEAN” value in data set [1] was 152.398. Besides, the “Total cell number (% DMSO control)” value is listed as 164.318 % DMSO control in the data set on rat heart cells (raw data replicate 1); 154.314 % DMSO control with rat heart cells (raw data replicate 2); 186.382 % DMSO control in the data set with rat heart cells (raw data replicate 3); 116.435 % DMSO control in the data set on rat heart cells (raw data replicate 4); 128.897 % DMSO control in the data set with rat heart cells (raw data replicate 5); 164.042 % DMSO control with rat heart cells (raw data replicate 6).

On to `CC[C@H](C)[C@H](NC(=O)[C@H](CCC(N)=O)NC(=O)[C@H](CC(C)C)NC(=O)[C@H](Cc1c[nH]c2ccccc12)NC(=O)[C@@H](NC(=O)[C@H](CC(=O)O)NC(C)=O)[C@@H](C)O)C(=O)N[C@@H](CCCCN)C(=O)N[C@@H](C)C(=O)N[C@@H](C)C(N)=O` [compound 6] (Ac-DTWLQIKAA-NH2), for which the equilibrium dissociation constant (Kd) at GST-hTEAD1 and on mTEAD4 was more than 100 µM in each case.

As to `CC[C@H](C)[C@H](NC(=O)[C@H](CCC(N)=O)NC(=O)[C@H](CC(C)C)NC(=O)[C@H](Cc1c[nH]c2ccccc12)NC(=O)[C@@H](NC(=O)[C@H](CC(=O)O)NC(=O)CNC(=O)[C@H](CC(C)C)NC(=O)[C@H](C)NC(=O)[C@H](CCCCN)NC(=O)[C@H](C)NC(=O)[C@H](Cc1ccccc1)NC(=O)[C@H](Cc1c[nH]cn1)NC(=O)[C@H](CC(=O)O)NC(=O)[C@H](CC(=O)O)NC(=O)[C@@H](NC(=O)[C@H](CO)NC(C)=O)C(C)C)[C@@H](C)O)C(=O)N[C@@H](C)C(=O)N[C@@H](C)C(=O)N[C@@H](C)C(N)=O` [compound 13] (Ac-SVDDHFAKALGDTWLQIAAA-NH2), the values for the Kd at GST-hTEAD1 and at mTEAD4 were 17 µM and 12 µM, respectively.

Consider `CC(=O)N[C@@H](CC(=O)O)C(=O)N1CCC[C@H]1C(=O)N[C@H](C(=O)N[C@H](C(=O)N[C@@H](CCC(=O)O)C(=O)N[C@@H](CCC(=O)O)C(=O)N[C@@H](Cc1c[nH]cn1)C(=O)N[C@@H](Cc1ccccc1)C(=O)N[C@@H](CCCNC(=N)N)C(=O)N[C@@H](CCCNC(=N)N)C(=O)N[C@@H](CO)C(=O)N[C@@H](CC(C)C)C(=O)NCC(=O)N[C@@H](CCCCN)C(=O)N[C@@H](CC(N)=O)C(=O)N[C@@H](Cc1ccc(O)cc1)C(N)=O)C(C)C)C(C)C` [compound 2] (Ac-DPVVEEHFRRSLGKNY-NH2), for which the Kd (as a rule, the equilibrium constant for the complex coming apart) on GST-hTEAD1 turned out to be 19.4 µM; on mTEAD4, 21.8 µM.

Take `C[S+]([O-])c1ccc(-c2nc(-c3ccncc3)c(-c3ccc(F)cc3)[nH]2)cc1` (stereo not shown) [SB203580, reference compound]: the “Cell cycle activity, MEAN” value in data set [1] came out at 122.95.

Take `CC[C@H](C)[C@H](NC(=O)[C@H](CO)NC(=O)[C@@H](NC(=O)[C@H](CO)NC(=O)[C@H](CC(N)=O)NC(=O)[C@@H]1CCCN1C(=O)[C@H](C)NC(=O)[C@@H]1CCCN1C(=O)[C@H](CCC(=O)O)NC(=O)[C@@H]1CCCN1C(=O)[C@H](CCC(=O)O)NC(=O)[C@H](CCCCN)NC(C)=O)C(C)C)C(=O)N[C@H](C(=O)NCC(N)=O)[C@@H](C)O` [compound 3] (Ac-KEPEPAPNSVSITG-NH2): the Kd on GST-hTEAD1 and at mTEAD4 was more than 100 µM in each case.

The values above are taken from publication PMC7591920, “A protein tertiary structure mimetic modulator of the Hippo signalling pathway” (Nature Communications, 2020).
